Results from patent US8518952B2, “6 substituted 2-heterocyclylamino pyrazine compounds as CHK-1 inhibitors” (Pfizer Inc., priority 2008, dated 2013).
Read-outs that look alike come from different tables or passages of the source.

What was measured:
[1] = molecular target: T1, CHK1 (kinase domain) (Homo sapiens, UniProt O14757); test: CHK1 Ki determination, spectrophotometric coupled (pyruvate kinase/lactate dehydrogenase) assay; assay type: biochemical; conditions: CHK-1 kinase domain; for percent inhibition (where no Ki data is available): inhibitor concentration not given; for Ki: 150 uM ATP, 125 uM Syntide 2
T1 construct: a solution containing 1 nM of CHK1 (kinase domain)
T1 sequence (O14757 9-265 limits assumed): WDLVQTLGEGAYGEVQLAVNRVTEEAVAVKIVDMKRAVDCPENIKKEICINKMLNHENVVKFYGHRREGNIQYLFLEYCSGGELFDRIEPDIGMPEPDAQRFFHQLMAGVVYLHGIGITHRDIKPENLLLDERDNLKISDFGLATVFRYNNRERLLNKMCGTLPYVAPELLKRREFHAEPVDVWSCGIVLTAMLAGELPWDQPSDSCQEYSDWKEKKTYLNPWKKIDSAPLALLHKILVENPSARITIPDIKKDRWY
Experimental: After 15 min pre-incubation, the enzymatic reaction was initiated by the simultaneous addition of Syntide 2 peptide (125 uM, final concentration) and ATP (150 uM, final concentration). The kinase-catalyzed production of ADP from ATP that accompanied phosphoryl transfer to the substrate Syntide 2 was coupled to the oxidation of NADH through the activities of pyruvate kinase and lactate dehydrogenase. NADH conversion to NAD^+ was monitored by the decrease in absorbance at 340 nm (ε=6.22 cm^−1 mM^−1) using a microplate reader from Molecular Devices Spectormax Plus (Sunnyvale, Calif.) or BMG LABTECH Inc (Offenburg, Germany).
The inhibition of CHK1 was analyzed by fitting the data to the following equation to determine Kiapp:
[formula] where [E]o and [I]o are the active enzyme and inhibitor concentration, respectively; Ki is the inhibition binding constant and Km the Michaelis-Menten constant for ATP; Vi and Vo are the rates of substrate oxidation in the presence of and in the absence of inhibitor, respectively. EC50 Determination (Cellular Assay)
(§1) Under the “Ki” column, data entries in the format of “%” are percent inhibition data where no Ki data is available. Data entry under the “EC50” column with an * are data obtained using Mia Paca-2 cells rather than HeLa cells. Data is not available where noted as n/a.

[2] = tested on: HeLa cells; test: Histone H3 (Ser10) phosphorylation ELISA, abrogation of camptothecin-induced G2 arrest (CHK-1 cellular assay); assay type: cell-based
Experimental: The Histone H3 phosphorylation ELISA assay detects cells entering mitosis and represents the primary in vitro cell-based assay used to measure the cellular potency of compounds in abrogating the G2 check point induced by DNA damage in HeLa cells or MiaPaCa cells. The candidate substances were assayed for potency in their ability to inhibit camptothecin-induced G2 arrest, as measured by an increase in Histone H3 phosphorylation on Ser10, a marker of entry into mitosis.
Tissue culture plates were seeded with HeLa cells or MiaPaCa Cells and allowed to attach overnight. The cells were then treated with camptothecin to induce DNA damage for 8 hrs. Candidate substances or diluent were then added in the presence of nocodozole for 16 hours. […] The fresh whole cell lysates were then thawed and added to the ELISA plate with shaking for 3 hours. Between all subsequent steps plates were washed 4 times with PBST. Biotinylated phospho Histone H3 (ser10) detection antibody was added for 1 hour, followed by addition of horseradish peroxidase-linked streptavidin secondary antibody for 1 hour. Color development of the antibody was performed with addition of TMB substrate and incubation for 2 minutes on a plate shaker. […] EC50 values were calculated by sigmoid curve fitting using a four-parameter analysis.
as §1

[3] = Homo sapiens, HeLa, HeLa cells, camptothecin 8 hrs, then compound with nocodozole 16 hours, read-out: EC50
[4] = HeLa cells, camptothecin 8 hrs, then compound with nocodozole 16 hours, read-out: EC50

Row | EC50 [2, 3] | Ki [1] | SMILES | other results
1 | 7970 nM |  | F[C@H]1CNC[C@@H]1Nc1cncc(-c2cnc3ccccn23)n1 (relative stereo) [Example 46, Trans N-[4-fluoropyrrolidin-3-yl]-6-imidazo[1,2-a]pyridin-3-ylpyrazin-2-amine] | percent inhibition (where no Ki data is available) [1]: 29.7%^
2 | 119 nM | 37.9 nM | Cc1cn2c(-c3cncc(N[C@@H]4CC[C@@H](C)NC4)n3)cnc2s1 (relative stereo) [Example 61, Trans 6-(2-Methylimidazo[2,1-b][1,3]thiazol-5-yl)-N-(6-methylpiperidin-3-yl)pyrazin-2-amine] | 
3 | 694 nM | 73.5 nM | Cc1cn2c(-c3cncc(N[C@@H]4CC[C@H](C)NC4)n3)cnc2s1 (relative stereo) [Example 62, Cis 6-(2-Methylimidazo[2,1-b][1,3]thiazol-5-yl)-N-(6-methylpiperidin-3-yl)pyrazin-2-amine] | 
4 |  | 374 nM | N#Cc1ccc2ncc(-c3cncc(N[C@H]4CNC[C@H]4C4CC4)n3)n2c1 [Example 263, 3-(6-{[(3R,4R)-4-cyclopropylpyrrolidin-3-yl]amino}pyrazin-2-yl)imidazo[1,2-a]pyridine-6-carbonitrile] | 
5 |  | 105 nM | CCOc1cc2ncn(-c3cncc(N[C@H]4CN[C@H](COC)C4)n3)c2cn1 [Example 297, [6-(6-Ethoxy-imidazo[4,5-c]pyridin-3-yl)-pyrazin-2-yl]-((3R,5S)-5-methoxymethyl-pyrrolidin-3-yl)-amine] | 
6 |  | 5.27 nM | CCOc1cc2ncn(-c3cncc(N[C@H]4CNCC[C@@H]4OC)n3)c2cn1 [Example 298, [6-(6-Ethoxy-imidazo[4,5-c]pyridin-3-yl)-pyrazin-2-yl]-((3S,4S)-4-methoxy-piperidin-3-yl)-amine] | 
7 |  | 4.11 nM | c1cc2c(-c3cncc(N[C@@H]4CCCNC4)n3)cnn2cn1 [Example 299, (R)-Piperidin-3-yl-(6-pyrazolo[1,5-c]pyrimidin-3-yl-pyrazin-2-yl)-amine] | 

Further lines, the molecule ahead of its results:

Row | SMILES | EC50 [2, 3] | Ki [1] | other results
8 | c1ccc2c(c1)ncn2-c1cncc(N[C@@H]2CCCNC2)n1 [Example 1, 6-(1H-benzimidazol-1-yl)-N-[(3R)-piperidin-3-yl]pyrazin-2-amine] |  | 13.2 nM | EC50 ([2]; Homo sapiens, HeLa): 70.3 nM
9 | c1ccn2c(-c3cncc(N[C@@H]4CCCNC4)n3)cnc2c1 [Example 2, 6-Imidazo[1,2-a]pyridin-3-yl-N-[(3R)-piperidin-3-yl]pyrazin-2-amine] |  | 3.24 nM | EC50 ([2]; Homo sapiens, HeLa): 34.3 nM
10 | c1ccn2c(-c3cncc(N[C@H]4CCCNC4)n3)cnc2c1 [Example 3, 6-Imidazo[1,2-a]pyridin-3-yl-N-[(3S)-piperidin-3-yl]pyrazin-2-amine] | 486 nM |  | percent inhibition (where no Ki data is available) [1]: 0%
11 | c1ccn2ncc(-c3cncc(N[C@@H]4CCCNC4)n3)c2c1 [Example 6, N-[(3R)-piperidin-3-yl]-6-pyrazolo[1,5-a]pyridin-3-ylpyrazin-2-amine] | 31.8 nM | 2.54 nM | 
12 | C[C@@H]1CC[C@@H](Nc2cncc(-n3cnc4cc(OCC5(C)COC5)ccc43)n2)CN1 [Example 9, 6-{5-[(3-Methyloxetan-3-yl)methoxy]-1H-benzimidazol-1-yl}-N-[(3R,6R)-6-methylpiperidin-3-yl]pyrazin-2-amine] | ≥ 10000 nM | 131 nM | 
13 | c1ccn2c(-c3cncc(N[C@@H]4CCNC4)n3)cnc2c1 [Example 10, 6-Imidazo[1,2-a]pyridin-3-yl-N-[(3R)-pyrrolidin-3-yl]pyrazin-2-amine] | 244 nM | 23.6 nM | 
14 | FC1(F)CCNCC1Nc1cncc(-c2cnc3ccccn23)n1 (centres unmarked) [Example 11, N-(4,4-difluoropiperidin-3-yl)-6-(imidazo[1,2-a]pyridin-3-yl)pyrazin-2-amine] | 62.1 nM |  | percent inhibition (where no Ki data is available) [1]: 101%^
15 | C[C@@H]1CNC[C@@H]1Nc1cncc(-c2cnc3ccccn23)n1 [Example 12, 6-Imidazo[1,2-a]pyridin-3-yl-N-[(3R,4R)-4-methylpyrrolidin-3-yl]pyrazin-2-amine] | 68.4 nM | 27.5 nM | 
16 | CC(C)Oc1ccc2ncn(-c3cncc(N[C@@H]4CCNC4)n3)c2c1 [Example 15, 6-[6-(propan-2-yloxy)-1H-benzimidazol-1-yl]-N-[(3R)-pyrrolidin-3-yl]pyrazin-2-amine] | ≥ 10000 nM |  | percent inhibition (where no Ki data is available) [1]: 43.5%^
17 | c1cnc2c(-c3cncc(N[C@@H]4CCCNC4)n3)cnn2c1 [Example 23, N-[(3R)-piperidin-3-yl]-6-pyrazolo[1,5-a]pyrimidin-3-ylpyrazin-2-amine] |  |  | percent inhibition (where no Ki data is available) [1]: 36.1%^; EC50 ([2]; Homo sapiens, HeLa cells, camptothecin 8 hrs, then compound with nocodozole 16 hours, read-out: EC50): ≥ 10000 nM
18 | FC(F)[C@@H]1C[C@@H](Nc2cncc(-c3cnc4ccccn34)n2)CN1 [Example 25, N-[(3R,5S)-5-(difluoromethyl)pyrrolidin-3-yl]-6-(imidazo[1,2-a]pyridin-3-yl)pyrazin-2-amine] | ≥ 10000 nM | 70.2 nM | 
19 | F[C@@H]1CCNC[C@@H]1Nc1cncc(-c2cnc3ccccn23)n1 [Example 27, N-[(3S,4R)-4-fluoropiperidin-3-yl]-6-(imidazo[1,2-a]pyridin-3-yl)pyrazin-2-amine] | 5580 nM | 53.9 nM | 
20 | F[C@H]1CCNC[C@@H]1Nc1cncc(-c2cnc3ccccn23)n1 [Example 28, N-[(3S,4S)-4-fluoropiperidin-3-yl]-6-imidazo[1,2-a]pyridin-3-ylpyrazin-2-amine] | 205 nM | 4.77 nM | 
21 | C[C@H]1CC[C@@H](Nc2cncc(-c3cnc4ccccn34)n2)CN1 [Example 30, 6-imidazo[1,2-a]pyridin-3-yl-N-[(3R,6S)-6-methylpiperidin-3-yl]pyrazin-2-amine] | 634 nM | 147 nM | 
22 | C[C@@H]1CC[C@@H](Nc2cncc(-c3cnc4ccccn34)n2)CN1 [Example 31, 6-imidazo[1,2-a]pyridin-3-yl-N-[(3R,6R)-6-methylpiperidin-3-yl]pyrazin-2-amine] | 183 nM | 27.3 nM | 
23 | C[C@@H]1CNC[C@@H]1Nc1cncc(-n2cnc3cc(-c4cnn(C)c4)ccc32)n1 [Example 34, 6-[5-(1-methyl-1H-pyrazol-4-yl)-1H-benzimidazol-1-yl]-N-[(3R,4R)-4-methylpyrrolidin-3-yl]pyrazin-2-amine] | 29 nM | 3.38 nM | 
24 | CCO[C@H]1CCNC[C@@H]1Nc1cncc(-c2cnc3ccccn23)n1 [Example 35, N-[(3S,4S)-4-ethoxypiperidin-3-yl]-6-(imidazo[1,2-a]pyridin-3-yl)pyrazin-2-amine] | 40.9 nM | 3.88 nM | 
25 | Cc1ccn2c(-c3cncc(N[C@@H]4CCCNC4)n3)cnc2c1 [Example 38, 6-(7-Methylimidazo[1,2-a]pyridin-3-yl)-N-[(3R)-piperidin-3-yl]pyrazin-2-amine] | 40 nM | 8 nM | 
26 | Cc1cn2c(-c3cncc(N[C@@H]4C[C@@H]5CN[C@H]4C5)n3)cnc2s1 [Example 85, (1S,4R,6R)-2-Aza-bicyclo[2.2.1]hept-6-yl-[6-(2-methyl-imidazo[2,1-b]thiazol-5-yl)-pyrazin-2-yl]-amine] |  |  | EC50 [2, 4]: 795 nM
27 | Cc1cn2c(-c3cncc(N[C@@H]4C[C@@H]5CN[C@H]4C5)n3)cnc2s1 [Example 125, (1S,4R,6R)-N-[6-(2-methylimidazo[2,1-b][1,3]thiazol-5-yl)pyrazin-2-yl]-2-azabicyclo[2.2.1]heptan-6-amine] |  |  | EC50 [2, 4]: 35 nM
28 | C[C@H]1NCCC[C@H]1Nc1cncc(-c2cnc3ccccn23)n1 [Example 138, 6-imidazo[1,2-a]pyridin-3-yl-N-[(2R,3R)-2-methylpiperidin-3-yl]pyrazin-2-amine] |  |  | EC50 [2, 4]: 188 nM
29 | c1cc2ncn(-c3cncc(N[C@@H]4CCNC4)n3)c2cc1OCC1CC1 [Example 220, 6-[6-(cyclopropylmethoxy)-1H-benzimidazol-1-yl]-N-[(3R)-pyrrolidin-3-yl]pyrazin-2-amine] |  |  | percent inhibition (where no Ki data is available) [1]: 17.9%^
